Columns and labels:
[1] = Corrosion rate by LPR sweep, copper coupons in synthetic water, 50° C., 1 ppm free chlorine after 0.5 hrs (Examples 1 and 2)
Protocol: (§1) One liter samples of synthetic water were each dosed with the compositions in Table 1.
(§2) The apparatus used for the corrosion testing was a Gamry Multiport Corrosion Cell and Gamry Reference 600+potentiostat with multiplexor. Copper coupons (CDA110) were added to the sample cells containing neutral water (pH 7.5), and the cells were dosed with 50 ppm of scale inhibitor (co-polymer and 2-phosphonobutane-1,2,4-yricarboxylic acid) and heated to 50° C. and maintained at this temperature throughout the testing. The cells were continuously stirred at a speed of 350 rpm. A cylindrical working electrode was submerged into the test solutions, and an LPR sweep (linear polarization resistance) was performed every hour for 18 hours. After the 0.5 hrs mark, 1 ppm of free chlorine was dosed into the corrosion cell.
(§3) One liter samples of the synthetic water described above with respect to Example 1 were each dosed with the compositions in Table 5 and processed under conditions similar to Example 1.

[2] = Cl2 demand in the corrosion cell test (Examples 1 and 2); format: physicochemical
Protocol: as §1, §2, §3

[3] = Control normalized Cl2 demand over time (Example 3, FIG. 3); format: physicochemical; settings: 1 ppm; compared to 50% sodium glucoheptonate (10 ppm)
Excerpt: One liter samples of the synthetic water described above with respect to Example 1 were each dosed with the compositions in Table 7 and processed under conditions similar to Example 1.

Substance: sodium dicarboxylethyl coco phosphoethyl imidazoline [SDCPI]
- CR Average (10-18 hrs) ([1]; 1 ppm): 0.224 mpy
- CR Peak ([1]; 1 ppm): 0.279 mpy
- corrosion rate ([1]; 1 ppm, 0 hrs): 0.025 mpy
- corrosion rate ([1]; 1 ppm, 1 hrs): 0.279 mpy
- corrosion rate ([1]; 1 ppm, 2 hrs): 0.252 mpy
- corrosion rate ([1]; 1 ppm, 3 hrs): 0.257 mpy
- corrosion rate ([1]; 1 ppm, 4 hrs): 0.245 mpy
- corrosion rate ([1]; 1 ppm, 5 hrs): 0.214 mpy
- corrosion rate ([1]; 1 ppm, 6 hrs): 0.200 mpy
- corrosion rate ([1]; 1 ppm, 7 hrs): 0.184 mpy
- corrosion rate ([1]; 1 ppm, 8 hrs): 0.175 mpy
- corrosion rate ([1]; 1 ppm, 9 hrs): 0.174 mpy
- corrosion rate ([1]; 1 ppm, 10 hrs): 0.182 mpy
- corrosion rate ([1]; 1 ppm, 11 hrs): 0.197 mpy
- corrosion rate ([1]; 1 ppm, 12 hrs): 0.213 mpy
- corrosion rate ([1]; 1 ppm, 13 hrs): 0.226 mpy
- corrosion rate ([1]; 1 ppm, 14 hrs): 0.240 mpy
- corrosion rate ([1]; 1 ppm, 15 hrs): 0.247 mpy
- corrosion rate ([1]; 1 ppm, 16 hrs): 0.249 mpy
- corrosion rate ([1]; 1 ppm, 17 hrs): 0.241 mpy
- corrosion rate ([1]; 1 ppm, 18 hrs): 0.226 mpy
- CR Average (10-18 hrs) ([1]; 2 ppm): 0.013 mpy
- CR Peak ([1]; 2 ppm): 0.092 mpy
- corrosion rate ([1]; 2 ppm, 0 hrs): 0.0168 mpy
- corrosion rate ([1]; 2 ppm, 1 hrs): 0.0923 mpy
- corrosion rate ([1]; 2 ppm, 2 hrs): 0.0637 mpy
- corrosion rate ([1]; 2 ppm, 3 hrs): 0.0529 mpy
- corrosion rate ([1]; 2 ppm, 4 hrs): 0.0240 mpy
- corrosion rate ([1]; 2 ppm, 5 hrs): 0.0173 mpy
- corrosion rate ([1]; 2 ppm, 6 hrs): 0.0164 mpy
- corrosion rate ([1]; 2 ppm, 7 hrs): 0.0167 mpy
- corrosion rate ([1]; 2 ppm, 8 hrs): 0.0171 mpy
- corrosion rate ([1]; 2 ppm, 9 hrs): 0.0179 mpy
- corrosion rate ([1]; 2 ppm, 10 hrs): 0.0165 mpy
- corrosion rate ([1]; 2 ppm, 11 hrs): 0.0151 mpy
- corrosion rate ([1]; 2 ppm, 12 hrs): 0.0139 mpy
- corrosion rate ([1]; 2 ppm, 13 hrs): 0.0133 mpy
- corrosion rate ([1]; 2 ppm, 14 hrs): 0.0127 mpy
- corrosion rate ([1]; 2 ppm, 15 hrs): 0.0117 mpy
- corrosion rate ([1]; 2 ppm, 16 hrs): 0.0116 mpy
- corrosion rate ([1]; 2 ppm, 17 hrs): 0.0113 mpy
- corrosion rate ([1]; 2 ppm, 18 hrs): 0.0103 mpy
- CR Average (10-18 hrs) ([1]; 3 ppm): 0.042 mpy
- CR Peak ([1]; 3 ppm): 0.053 mpy
- corrosion rate ([1]; 3 ppm, 0 hrs): 0.013 mpy
- corrosion rate ([1]; 3 ppm, 1 hrs): 0.053 mpy
- corrosion rate ([1]; 3 ppm, 2 hrs): 0.039 mpy
- corrosion rate ([1]; 3 ppm, 3 hrs): 0.043 mpy
- corrosion rate ([1]; 3 ppm, 4 hrs): 0.042 mpy
- corrosion rate ([1]; 3 ppm, 5 hrs): 0.042 mpy
- corrosion rate ([1]; 3 ppm, 6 hrs): 0.044 mpy
- corrosion rate ([1]; 3 ppm, 7 hrs): 0.044 mpy
- corrosion rate ([1]; 3 ppm, 8 hrs): 0.044 mpy
- corrosion rate ([1]; 3 ppm, 9 hrs): 0.046 mpy
- corrosion rate ([1]; 3 ppm, 10 hrs): 0.046 mpy
- corrosion rate ([1]; 3 ppm, 11 hrs): 0.046 mpy
- corrosion rate ([1]; 3 ppm, 12 hrs): 0.044 mpy
- corrosion rate ([1]; 3 ppm, 13 hrs): 0.043 mpy
- corrosion rate ([1]; 3 ppm, 14 hrs): 0.042 mpy
- corrosion rate ([1]; 3 ppm, 15 hrs): 0.041 mpy
- corrosion rate ([1]; 3 ppm, 16 hrs): 0.040 mpy
- corrosion rate ([1]; 3 ppm, 17 hrs): 0.039 mpy
- corrosion rate ([1]; 3 ppm, 18 hrs): 0.038 mpy
- corrosion inhibition properties over the entire 18 hour period (in words) ([1]; Example 2, 2 ppm): good corrosion inhibition properties
- Cl2 Demand ([2]; 1 ppm): 0.3 mg/L
- Cl2 Demand ([2]; 2 ppm): 0.9 mg/L
- Cl2 Demand ([2]; 3 ppm): 0.8 mg/L
- control normalized C12 demand over time (in words) [3]: did not result in significant loss of C12 demand
